Data taken from US5965699A (priority 1996, dated 1999).
Several values for one entry are separate records, joined by “and”; a condition that tells them apart may be missing. Identical values can stand only once. Like-named read-outs stand apart in the source and are kept apart here. Where a SMILES comes first, the peptide text is derived from it. [ ]: non-standard residue; d: D form. Abu = CC[C@H](N)C(=O)O

Assays:
botox A [1] = target: T1, botox A (Clostridium botulinum, UniProt P0DPI1)
botox A [2] = target: T1, botox A; format: biochemical
botox A [3] = target: T1, botox A; assay: biochemical; details: for inhibition at 1000 µM: read-out: inhibition of hydrolysis of peptide [1-17]

T1 sequence (P0DPI1 2-448 limits assumed): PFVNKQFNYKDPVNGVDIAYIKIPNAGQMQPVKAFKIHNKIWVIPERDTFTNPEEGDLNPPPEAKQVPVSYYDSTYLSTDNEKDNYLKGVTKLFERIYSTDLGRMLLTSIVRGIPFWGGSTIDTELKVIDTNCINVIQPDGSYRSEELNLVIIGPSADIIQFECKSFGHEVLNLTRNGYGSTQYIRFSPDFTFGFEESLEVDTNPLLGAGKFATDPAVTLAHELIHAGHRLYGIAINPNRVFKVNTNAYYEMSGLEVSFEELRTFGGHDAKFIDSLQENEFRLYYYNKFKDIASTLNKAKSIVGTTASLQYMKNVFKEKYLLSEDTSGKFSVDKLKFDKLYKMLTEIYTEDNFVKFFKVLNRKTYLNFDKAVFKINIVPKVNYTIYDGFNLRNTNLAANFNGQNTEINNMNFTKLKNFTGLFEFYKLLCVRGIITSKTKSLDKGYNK

| Compound | effect on hydrolysis of substrate peptides by botox A (botox A [1]) | hydrolysis by botox A, described in words (botox A [2]) | kcat (botox A [2]; in 1/s) | inhibition at 1000 µM (botox A [3]) | Km (botox A [2]; read-out: Km) | further results |
| --- | --- | --- | --- | --- | --- | --- |
| lysozyme | no effect | – | – | – | – | – |
| ribonuclease | no effect | – | – | – | – | – |
| gelatin | no effect | – | – | – | – | – |
| Ac-SNKTRIDEAAQRATKML-NH2 [N10A, S N K T R I D E A A Q R A T K M L] | – | only very slowly cleaved | 1.8 ± 0.1 | 30% | – | kcat as percent of that for peptide [1-17] (botox A [2]): about 4% |
| Ac-SNKTRIDEANQRLTKML-NH2 [A13L, S N K T R I D E A N Q R L T K M L] | – | below the limits of detection | – | 30% | – | Ki (botox A [3]): 1000 to 2000 µM |
| Ac-SNKTRIDEANQRATK-NH2 [[1-15], S N K T R I D E A N Q R A T K] | – | very slow rate of hydrolysis | ~1.0 | 17% | – | Relative Rate (initial hydrolysis rates relative to peptide [1-17]) (botox A [2]): 0.03; kcat as percent of that for peptide [1-17] (botox A [2]): 2-3% |
| CC[C@H](NC(=O)[C@H](CC(N)=O)NC(=O)[C@H](C)NC(=O)[C@H](CCC(=O)O)NC(=O)[C@H](CC(=O)O)NC(=O)[C@@H](NC(=O)[C@H](CCCNC(=N)N)NC(=O)[C@@H](NC(=O)[C@H](CCCCN)NC(=O)[C@H](CC(N)=O)NC(=O)[C@H](CO)NC(C)=O)[C@@H](C)O)[C@@H](C)CC)C(=O)N[C@@H](CCCNC(=N)N)C(=O)N[C@@H](C)C(=O)N[C@H](C(=O)N[C@@H](CCCCN)C(=O)N[C@@H](CCSC)C(=O)N[C@@H](CC(C)C)C(N)=O)[C@@H](C)O [Q11B, S N K T R I D E A N B R A T K M L] (Ac-SNKTRIDEAN[Abu]RATKML-NH2) | – | slowed but did not eliminate hydrolysis | 7.7 ± 0.2 | – | 830 ± 50 µM | – |
| Ac-SNKTRIDEANQRASKML-NH2 [T14S, S N K T R I D E A N Q R A S K M L] | – | significantly lower hydrolysis rate | – | – | ~1200 µM | Km (botox A [2]): 1200 µM; Relative Rate (initial hydrolysis rates relative to peptide [1-17]) (botox A [2]): 0.26; kcat (botox A [2]): ~9.0 and 9.0 sec^-1 |
| Ac-SNKTRIDEANQRATAML-NH2 [K15A, S N K T R I D E A N Q R A T A M L] | – | significantly lower hydrolysis rate | ~8.0 | – | ~1000 µM | – |
| ovalbumin | no effect | – | – | – | – | – |
